System: L929 cells
Assay: Cytotoxicity of the cured adhesive in accordance with ISO 10993-5:2009
Type: cell-based
Details: adhesive of Prepolymer C cured with equivalent amount of curing agent
Method: Prepolymer C was reacted with an equivalent amount of 3. The cytotoxicity was measured in accordance with ISO 10993-5:2009 using L929 cells.
4 g of prepolymer C were stirred thoroughly in a beaker with an equivalent amount of (5) and cured. The adhesive was measured in accordance with ISO 10993-5:2009 using L929 cells.

SMILES: CCOC(=O)CC(NCCCC(CCCNC(CC(=O)OCC)C(=O)OCC)CCCNC(CC(=O)OCC)C(=O)OCC)C(=O)OCC (stereo not drawn) [Compound 3, Tetraethyl 2,2′-(4-(3-(1,4-diethoxy-1,4-dioxobutan-2-ylamino)propyl)heptane-1,7-diyl)bis-(azandiyl)disuccinate]
- cell viability: no reduction in cell viability
- cytotoxicity category: not to be categorised as cytotoxic

SMILES: CCOC(=O)CC(NCCCCC(CCCNC(CC(=O)OCC)C(=O)OCC)CNC(CC(=O)OCC)C(=O)OCC)C(=O)OCC (stereo not drawn) [Compound 5, Diethyl 2-[(8-[(1,4-diethoxy-1,4-dioxobutan-2-yl)amino]-4-{[(1,4-diethoxy-1,4-dioxobutan-2-yl)-amino]methyl}octyl)amino]butanedioate, reference compound]
- cytotoxicity category: high cyctotoxicity
